In patent US8143421B2, “Broadspectrum substituted benzimidazole sulfonamide HIV protease inhibitors” (priority 2002, dated 2012):

Tests used:
HIV-1 strain LAI = assay: Cellular anti-HIV assay, MT4 cells, MTT readout, wild type HIV-1 strain LAI; format: cell-based; details: for WT (pIC50 against wild type HIV-LAI strain): Table 4
Method: The compounds of the present invention were examined for anti-viral activity in a cellular assay. […] The cellular assay was performed according to the following procedure.

mutant E = format: cell-based; details: FR=IC50(mutant strain)/IC50(HIV-1 strain LAI)
Method: (§1) HIV- or mock-infected MT4 cells were incubated for five days in the presence of various concentrations of the inhibitor. […] Cell viability is measured by measuring the concentration of MTT, a yellow, water soluble tetrazolium dye that is converted to a purple, water insoluble formazan in the mitochondria of living cells only. Upon solubilization of the resulting formazan crystals with isopropanol, the absorbance of the solution is monitored at 540 nm. The values correlate directly to the number of living cells remaining in the culture at the completion of the five day incubation. The inhibitory activity of the compound was monitored on the virus-infected cells and was expressed as IC50 and IC90. These values represent the amount of the compound required to protect 50% and 90%, respectively, of the cells from the cytopathogenic effect of the virus. […] The selectivity index (SI) (ratio CC50/IC50) is an indication of the selectivity of the anti-HIV activity of the inhibitor. Wherever results are reported as e.g. pIC50 or pCC50 values, the result is expressed as the negative logarithm of the result expressed as IC50 or CC50 respectively.
(§2) Because of the increasing emergence of drug resistant HIV strains, the present compounds were tested for their potency against clinically isolated HIV strains harboring several mutations. […] The viral strains R13025, R13027, R13028, R13029, R13034, R13080, T13127 and R13363 contained mutations as indicated below in Table 3.
(§3) As a measure of the broad spectrum activity of the present compounds, the fold resistance (FR), defined as FR=IC50(mutant strain)/IC50(HIV-1 strain LAI), was determined.

mutant A = format: cell-based; details: FR=IC50(mutant strain)/IC50(HIV-1 strain LAI)
Method: as §1, §2, §3

mutant H = assay: Antiviral spectrum, fold resistance towards mutant H; format: cell-based; details: FR=IC50(mutant strain)/IC50(HIV-1 strain LAI)
Method: Because of the increasing emergence of drug resistant HIV strains, the present compounds were tested for their potency against clinically isolated HIV strains harboring several mutations. These mutations are associated with resistance to protease inhibitors and result in viruses that show various degrees of phenotypic cross-resistance to the currently commercially available drugs such as for instance saquinavir, ritonavir, nelfinavir, indinavir and amprenavir. The viral strains R13025, R13027, R13028, R13029, R13034, R13080, T13127 and R13363 contained mutations as indicated below in Table 3.

mock-infected MT4 cells = assay: in vitro
Method: as §1, §3

[1] = Table 1, MT4 cells, five days, HIV-1 strain LAI
[2] = pCC50 value as determined with mock transfected cells
[3] = Table 2, MT4 cells, five days, HIV-1 strain LAI

IC50 (HIV-1 strain LAI; Human immunodeficiency virus 1, 120 h, Table 1, MT4 cells, five days, HIV-1 strain LAI, read-out: pIC50 (LAI) (converted)) | SMILES | pIC50 (LAI) (HIV-1 strain LAI; [1]) | FR towards mutant E (mutant E) | FR value towards mutant A (mutant A) | WT (pIC50 against wild type HIV-LAI strain) (HIV-1 strain LAI) | FR towards mutant H (mutant H) | Tox (pCC50) (mock-infected MT4 cells) | Tox (pCC50) (mock-infected MT4 cells; [2]) | pIC50 (LAI) (HIV-1 strain LAI; [3])
– | COC(=O)Nc1nc2ccc(S(=O)(=O)N(CC(C)C)CC(O)C(Cc3ccccc3)NC(=O)OC3COC4OCCC34)cc2[nH]1 (stereo not drawn) [Compound 10] | 8.0 | – | – | – | – | – | – | –
– | CC(C)CN(C[C@@H](O)[C@H](Cc1ccccc1)NC(=O)O[C@H]1CCOC1)S(=O)(=O)c1ccc2ncn(CC(C)C)c2c1 [Compound 14] | 7.7 | – | – | – | – | – | – | –
39.8 nM | CC(C)CN(C[C@@H](O)[C@H](Cc1ccccc1)NC(=O)O[C@H]1CO[C@H]2OCC[C@H]21)S(=O)(=O)c1ccc2ncn(CCN3CCCC3)c2c1 [Compound 20, [(1S,2R)-2-hydroxy-1-(phenyl-methyl)-3-[[[1-[2-(pyrrolidin-1-yl)ethyl]benzimidazol-6-yl]sulfonyl](2-methylpropyl)-amino]propyl]carbamic acid, [(3R,3aS,6aR)-hexahydrofuro[2,3-b]furan-3-yl]ester] | – | – | – | – | – | – | – | –
– | COC(=O)Nc1nc2ccc(S(=O)(=O)N(CC(C)C)C[C@@H](O)[C@H](Cc3ccccc3)NC(=O)c3ccc(O)cc3C)cc2[nH]1 [Compound 25] | 7.1 | 1.3 | 1.2 | 7.1 | 4.6 | 4.3 | – | –
– | COC(=O)Nc1nc2ccc(S(=O)(=O)N(CC(C)C)C[C@@H](O)[C@H](Cc3ccccc3)NC(=O)COc3c(C)cc(CN)cc3C)cc2[nH]1 [Compound 26] | 7.0 | 6.8 | 6.3 | 7.0 | 47 | – | 4.86 | –
– | CC(=O)Nc1nc2ccc(S(=O)(=O)N(CC(C)C)C[C@@H](O)[C@H](Cc3ccccc3)NC(=O)O[C@H]3CCOC3)cc2[nH]1 [Compound 27] | 7.3 | 1.1 | 2.7 | 7.3 | 2.3 | <4 | – | –
– | CC(C)CN(CC(O)C(Cc1ccccc1)NC(=O)OC1COC2OCCC12)S(=O)(=O)c1ccc2ncn(Cc3ccncc3)c2c1 (stereo not drawn) [Compound 28] | 7.5 | 1.3 | 1.5 | 7.5 | 2.6 | – | – | –
– | Cc1cccc(C)c1OCC(=O)N[C@@H](Cc1ccccc1)[C@H](O)CN(CC(C)C)S(=O)(=O)c1ccc2nc[nH]c2c1 [Compound 29] | 7.1 | 13 | 14 | 7.1 | 78 | 4.21 | – | –
– | CC(C)CN(C[C@@H](O)[C@H](Cc1ccccc1)NC(=O)OCc1cncs1)S(=O)(=O)c1ccc2ncn(Cc3ccccc3)c2c1 [Compound 30] | 7.1 | 13 | 18 | 7.1 | 65 | – | – | –
– | Cc1cccc(C)c1OCC(=O)N[C@@H](Cc1ccccc1)[C@H](O)CN(CC(C)C)S(=O)(=O)c1ccc2ncn(C)c2c1 [Compound 31] | 7.2 | 9.5 | 13 | 7.2 | 209 | 4.24 | – | –
– | CC(C)CN(C[C@@H](O)[C@H](Cc1ccccc1)NC(=O)OCc1cncs1)S(=O)(=O)c1ccc2ncn(CC(C)C)c2c1 [Compound 32] | 7.4 | 13 | 18 | 7.4 | 41 | 4.2 | – | –
– | CC(C)CN(C[C@@H](O)[C@H](Cc1ccccc1)NC(=O)OCc1cncs1)S(=O)(=O)c1ccc2ncn(C)c2c1 [Compound 33] | 7.0 | 19 | 60 | 7.7 | 234 | <4 | – | –
– | CC(C)CN(C[C@@H](O)[C@H](Cc1ccccc1)NC(=O)OCc1cncs1)S(=O)(=O)c1ccc2ncn(CCc3ccccc3)c2c1 [Compound 34] | 7.0 | 17 | 32 | 7.0 | 46 | – | <4 | –
– | CC(C)CN(C[C@@H](O)[C@H](Cc1ccccc1)NC(=O)OCc1cccnc1)S(=O)(=O)c1ccc2nc[nH]c2c1 [Compound 35] | 7.0 | 17 | 91 | 7.0 | 148 | – | <4 | –
– | Cc1cccc(C)c1OCC(=O)N[C@@H](Cc1ccccc1)[C@H](O)CN(CC(C)C)S(=O)(=O)c1ccc2nc(N)[nH]c2c1 [Compound 36] | 6.5 | 3.1 | 4.4 | 6.5 | 17 | 4.19 | – | –
– | CC(C)CN(C[C@@H](O)[C@H](Cc1ccccc1)NC(=O)OC(C)(C)C)S(=O)(=O)c1ccc2nc(N)n(Cc3ccccc3)c2c1 [Compound 39] | 6.9 | 3.5 | 32 | 6.9 | – | – | – | –
– | CC(C)CN(C[C@@H](O)[C@H](Cc1ccccc1)NC(=O)O[C@H]1CO[C@H]2OCC[C@H]21)S(=O)(=O)c1ccc2nc(NCCN3CCCC3)n(CCc3ccccc3)c2c1 [Compound 40, [(1S,2R)-2-hydroxy-3-[[[[1-(phenethyl)-2-[2-(pyrrolidin-1-yl)ethylamino]]benzimidazol-6-yl]sulfonyl](2-methylpropyl)amino]-1-(phenylmethyl)propyl]carbamic acid, [(3R,3aS,6aR)-hexahydrofuro[2,3-b]furan-3-yl]ester] | 6.4 | 4.0 | 10 | 6.4 | 7.9 | – | – | –
– | CC(C)CN(CC(O)C(Cc1ccccc1)NC(=O)OC1COC2OCCC12)S(=O)(=O)c1ccc2nc(N)n(C)c2c1 (stereo not drawn) [Compound 41] | 6.6 | 1.4 | 1.4 | 6.6 | 1.5 | <4 | – | –
– | CC(C)CN(C[C@@H](O)[C@H](Cc1ccccc1)NC(=O)O[C@H]1CCOC1)S(=O)(=O)c1ccc2nc[nH]c2c1 [Compound 42] | 7.1 | 8.7 | – | 7.1 | 52 | <4 | – | –
– | Cc1cccc(C)c1OCC(=O)N[C@@H](Cc1ccccc1)[C@H](O)CN(CC(C)C)S(=O)(=O)c1ccc2ncn(CC(C)C)c2c1 [Compound 45] | 6.3 | 7.4 | 9.3 | 6.3 | – | <4 | – | –
– | Cc1c(N)cccc1C(=O)N[C@@H](Cc1ccccc1)[C@H](O)CN(CC(C)C)S(=O)(=O)c1ccc2nc[nH]c2c1 [Compound 46] | 6.4 | – | – | 6.4 | – | – | <4 | –
– | CC(C)CN(CC(O)C(Cc1ccccc1)NC(=O)OC1COC2OCCC12)S(=O)(=O)c1ccc2ncn(Cc3cncn3C)c2c1 (stereo not drawn) [Compound 51] | 6.2 | 0.89 | 2.8 | 6.2 | 2.1 | – | – | –
– | CC(C)CN(C[C@@H](O)[C@H](Cc1ccccc1)NC(=O)O[C@H]1CCOC1)S(=O)(=O)c1ccc2nc(N)[nH]c2c1 [Compound 53] | 6.0 | – | – | 6.0 | – | 4.05 | – | –
– | CC(C)CN(CC(O)C(Cc1ccccc1)NC(=O)OC1COC2OCCC12)S(=O)(=O)c1ccc2c(c1)ncn2CCN(C)C (stereo not drawn) [Compound 60] | – | – | – | – | – | – | – | 6.5
– | Cc1cc(N)cc(C)c1OCC(=O)N[C@@H](Cc1ccccc1)[C@H](O)CN(CC(C)C)S(=O)(=O)c1ccc2c(c1)ncn2CCN(C)C [Compound 62] | – | – | – | – | – | – | – | 5.7
